Experimental data: publication PMC8119466, “A screen of FDA-approved drugs identifies inhibitors of protein tyrosine phosphatase 4A3 (PTP4A3 or PRL-3)” (Scientific Reports, 2021)
Where a name gives a salt, the structure may show the parent alone. Read-outs that look alike come from different tables or passages of the source. Starred links: 1 amine or outer side, 2 acyl side, 3 side chain; linkers in the order of their positions; H or OH if unused. Positions of bridges follow the written chain, without caps; N, C: chain ends. Non-standard residues stand in square brackets, D forms with d. Residues, ends and D or L forms follow the SMILES beside them. *: point of attachment. pTerphenylCO(4''-OnC5H11) = CCCCCOc1ccc(-c2ccc(-c3ccc(C(=O)*)cc3)cc2)cc1; Orn(4R-OH,5R-OH) = O=C([C@H](C[C@@H](O)[C@@H](O)N[*:3])N[*:1])[*:2]; hTyr(3S-OH,4S-OH) = N[C@H](C(=O)O)[C@H](O)[C@@H](O)c1ccc(O)cc1; Pro(3S-OH,4S-Me) = C[C@H]1CN[C@H](C(=O)O)[C@H]1O; Hyp = O=C(O)[C@@H]1C[C@@H](O)CN1

Columns and labels:
Assay type in all cases: biochemical
recombinant PRL-1 = biological target: T1, recombinant PRL-1 (Homo sapiens, UniProt Q93096); test: In vitro phosphatase assay (DiFMUP hydrolysis), PRL-1; note: test concentration or dose not given here
T1 construct: 6xHis (N, cleaved yes); made in house; host or cells: E. coli One Shot BL21 Star
T1 sequence (Q93096 1-173): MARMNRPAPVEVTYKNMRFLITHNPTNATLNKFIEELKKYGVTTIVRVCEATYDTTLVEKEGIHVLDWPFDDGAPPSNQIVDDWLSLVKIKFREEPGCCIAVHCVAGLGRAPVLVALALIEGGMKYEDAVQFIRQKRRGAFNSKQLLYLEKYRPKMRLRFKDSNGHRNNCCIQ

recombinant PRL-2 = biological target: T2, recombinant PRL-2 (Homo sapiens, UniProt Q12974); test: In vitro phosphatase assay (DiFMUP hydrolysis), PRL-2;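 note: PRL-2 activity read as DiFMUP hydrolysis after 20 min at room temperature with drug, enzyme first pre-reduced at 4 °C for 20 min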
T2 construct: 6xHis (N, cleaved yes); made in house; host or cells: E. coli One Shot BL21 Star
T2 sequence (Q12974 1-167): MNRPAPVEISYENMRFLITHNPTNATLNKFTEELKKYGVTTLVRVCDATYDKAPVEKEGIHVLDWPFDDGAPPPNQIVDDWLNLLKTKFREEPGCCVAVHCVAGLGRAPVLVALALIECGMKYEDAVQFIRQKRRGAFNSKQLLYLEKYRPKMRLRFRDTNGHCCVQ

recombinant PRL-3 = biological target: T3, recombinant PRL-3 (Homo sapiens, UniProt O75365); test: In vitro phosphatase assay (DiFMUP hydrolysis), PRL-3; note: test concentration or dose not given here
T3 construct: 6xHis (N, cleaved yes); made in house; host or cells: E. coli One Shot BL21 Star
T3 sequence (O75365 whole entry): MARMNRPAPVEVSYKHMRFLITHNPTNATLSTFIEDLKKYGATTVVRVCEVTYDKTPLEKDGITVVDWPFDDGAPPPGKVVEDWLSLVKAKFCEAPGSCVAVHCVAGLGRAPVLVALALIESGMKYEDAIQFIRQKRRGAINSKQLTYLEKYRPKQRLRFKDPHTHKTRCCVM

[1] = FDA-approved drug screen, compared to DMSO
[2] = FDA-approved drug screen, activity compared to DMSO

| SMILES | % Phosphatase Activity (compared to DMSO) PRL-1 (recombinant PRL-1; [1]) | % Phosphatase Activity (compared to DMSO) PRL-2 (recombinant PRL-2; [1]) | % Phosphatase Activity (compared to DMSO) PRL-3 (recombinant PRL-3; [1]) | further results |
| --- | --- | --- | --- | --- |
| CCN(CC)CCOCCOC(=O)C(CC)(CC)c1ccccc1.O=C(O)CC(O)(CC(=O)O)C(=O)O [Oxeladin Citrate] | 90% | 88% | 89% |  |
| CC(C)(C)NCC(O)COc1cccc2c1CCC(=O)N2 (stereo not drawn) [Carteolol HCl] | 100% | 87% | 71% |  |
| COc1ccc(CN2CCNCC2)c(OC)c1OC [Trimetazidine dihydrochloride] |  |  |  | % Phosphatase Activity (compared to DMSO) PRL-1 (recombinant PRL-1; [2]): 95%; % Phosphatase Activity (compared to DMSO) PRL-2 (recombinant PRL-2; [2]): 93%; % Phosphatase Activity (compared to DMSO) PRL-3 (recombinant PRL-3; [2]): 80% |
| CC(=O)c1c(C)c2cnc(Nc3ccc(N4CCNCC4)cn3)nc2n(C2CCCC2)c1=O.Cl [Palbociclib (PD-0332991) HCl] | 68% | 61% | 102% |  |
| CC(=O)[C@H]1CC[C@H]2[C@@H]3C=CC4=CC(=O)CC[C@@]4(C)[C@@H]3CC[C@]12C [Dydrogesterone] | 91% | 98% | 67% |  |
| CN1CCN(c2nc(C3=C(c4c[nH]c5ccccc45)C(=O)NC3=O)c3ccccc3n2)CC1 [Sotrastaurin] |  |  |  | % Phosphatase Activity (compared to DMSO) PRL-1 (recombinant PRL-1; [2]): 83%; % Phosphatase Activity (compared to DMSO) PRL-2 (recombinant PRL-2; [2]): 89%; % Phosphatase Activity (compared to DMSO) PRL-3 (recombinant PRL-3; [2]): 85% |
| C[C@]12CC[C@@H]3c4ccc(O)cc4CC[C@H]3[C@@H]1CCC2=O [Estrone] | 107% | 87% | 76% |  |
| Oc1cc(O)c(Cl)cn1 [Gimeracil] | 102% | 97% | 94% |  |
| CC1CNc2c(cccc2S(=O)(=O)N[C@@H](CCCNC(=N)N)C(=O)N2CC[C@@H](C)C[C@@H]2C(=O)O)C1 (stereo partly drawn) [Argatroban] | 104% | 100% | 80% |  |
| CN(CCOc1ccc(CC2SC(=O)NC2=O)cc1)c1ccccn1.Cl (stereo not drawn) [Rosiglitazone HCl] | 103% | 116% | 79% |  |
| CCC1(c2cnc[nH]2)Cc2ccccc2C1.Cl [Atipamezole hydrochloride] | 98% | 106% | 88% |  |
| COc1ccccc1OCC(O)CO (stereo not drawn) [Guaifenesin] | 102% | 92% | 100% |  |
| CC(C)(S)[C@@H](N)C(=O)O [Penicillamine] | 85% | 100% | 97% |  |
| CN(C)CCC=C1c2ccccc2C=Cc2ccccc21 [Cyclobenzaprine HCl] |  |  |  | % Phosphatase Activity (compared to DMSO) PRL-1 (recombinant PRL-1): 104%; % Phosphatase Activity (compared to DMSO) PRL-2 (recombinant PRL-2): 103%; % Phosphatase Activity (compared to DMSO) PRL-3 (recombinant PRL-3): 85% |
| Cl.NCC1(CC(=O)O)CCCCC1 [Gabapentin HCl] | 99% | 87% | 85% |  |
| CC(C)(C)Cn1c(N)nc2ccc(-c3[nH]c(C(C)(C)C)nc3-c3ccc(F)cc3)nc21 [LY2228820] | 159% | 137% | 131% |  |
| CO[C@H]1C[C@@H]2CC[C@@H](C)[C@@](O)(O2)C(=O)C(=O)N2CCCC[C@H]2C(=O)O[C@H]([C@H](C)C[C@@H]2CC[C@@H](OC(=O)C(C)(CO)CO)[C@H](OC)C2)CC(=O)[C@H](C)/C=C(\C)[C@@H](O)[C@@H](OC)C(=O)[C@H](C)C[C@H](C)/C=C/C=C/C=C/1C [Temsirolimus (CCI-779, NSC 683864)] |  |  |  | % Phosphatase Activity (compared to DMSO) PRL-1 (recombinant PRL-1; [2]): 96%; % Phosphatase Activity (compared to DMSO) PRL-2 (recombinant PRL-2; [2]): 111%; % Phosphatase Activity (compared to DMSO) PRL-3 (recombinant PRL-3; [2]): 91% |
| FC(F)(F)C(Cl)Br (stereo not drawn) [Halothane] | 102% | 95% | 79% |  |

| SMILES | % Phosphatase Activity (compared to DMSO) PRL-1 (recombinant PRL-1; [1]) | % Phosphatase Activity (compared to DMSO) PRL-2 (recombinant PRL-2; [1]) | % Phosphatase Activity (compared to DMSO) PRL-3 (recombinant PRL-3; [1]) | further results |
| --- | --- | --- | --- | --- |
| CCCCCOc1ccc(-c2ccc(-c3ccc(C(=O)N[C@H]4C[C@@H](O)[C@@H](O)NC(=O)[C@@H]5[C@@H](O)[C@@H](C)CN5C(=O)[C@H]([C@@H](C)O)NC(=O)[C@H]([C@H](O)[C@@H](O)c5ccc(O)cc5)NC(=O)[C@@H]5C[C@@H](O)CN5C(=O)[C@H]([C@@H](C)O)NC4=O)cc3)cc2)cc1 [Anidulafungin (LY303366)] ({pTerphenylCO(4''-OnC5H11)}-[Orn(4R-OH,5R-OH)]T[Hyp][hTyr(3S-OH,4S-OH)]T[Pro(3S-OH,4S-Me)]; lactam 1-C) | 569% | 568% | 623% |  |
| C#C[C@]1(O)CC[C@H]2[C@@H]3CCC4=CC(=O)CC[C@@H]4[C@H]3C(=C)C[C@@]21CC [Etonogestrel] | 90% | 85% | 80% |  |
| O=C(c1ccc(OCCN2CCCCC2)cc1)c1c(-c2ccc(O)cc2)sc2cc(O)ccc12 [Raloxifene HCl] | 95% | 96% | 74% |  |
| CC(C)(C)C(=O)Oc1ccc(S(=O)(=O)Nc2ccccc2C(=O)NCC(=O)O)cc1 [Sivelestat sodium] |  |  |  | % Phosphatase Activity (compared to DMSO) PRL-1 (recombinant PRL-1; [2]): 89%; % Phosphatase Activity (compared to DMSO) PRL-2 (recombinant PRL-2; [2]): 86%; % Phosphatase Activity (compared to DMSO) PRL-3 (recombinant PRL-3; [2]): 75% |
| COc1ccc(C(=O)NCc2ccc(OCCN(C)C)cc2)cc1OC.Cl [Itopride hydrochloride] | 95% | 115% | 80% |  |
| CCOC(=O)[C@@H](N)Cc1ccc(-c2cc(O[C@H](c3ccc(Cl)cc3-n3ccc(C)n3)C(F)(F)F)nc(N)n2)cc1.O=C(O)CNC(=O)c1ccccc1 [Telotristat Etiprate (LX 1606 Hippurate)] |  |  |  | % Phosphatase Activity (compared to DMSO) PRL-1 (recombinant PRL-1; [2]): 106%; % Phosphatase Activity (compared to DMSO) PRL-2 (recombinant PRL-2; [2]): 108%; % Phosphatase Activity (compared to DMSO) PRL-3 (recombinant PRL-3; [2]): 97% |
| Cc1ccc(C(=O)Nc2ccc(CN3CCN(C)CC3)c(C(F)(F)F)c2)cc1C#Cc1cnc2cccnn12 [Ponatinib (AP24534)] | 396% | 417% | 319% |  |
| Nc1c(CC(=O)O)cccc1C(=O)c1ccc(Br)cc1 [Bromfenac Sodium] | 86% | 99% | 75% |  |
| CC(NC(C)(C)C)C(=O)c1cccc(Cl)c1.Cl (stereo not drawn) [Amfebutamone HCl] | 102% | 110% | 77% |  |
| CCCCCCOC(=O)N=C(N)c1ccc(NCc2nc3cc(C(=O)N(CCC(=O)OCC)c4ccccn4)ccc3n2C)cc1 [Dabigatran Etexilate] | 121% | 112% | 106% |  |
| CCC(C)(C)C(=O)O[C@H]1C[C@@H](C)C=C2C=C[C@H](C)[C@H](CC[C@@H]3C[C@@H](O)CC(=O)O3)[C@H]21 [Simvastatin] |  |  |  | % Phosphatase Activity (compared to DMSO) PRL-1 (recombinant PRL-1; [2]): 84%; % Phosphatase Activity (compared to DMSO) PRL-2 (recombinant PRL-2; [2]): 94%; % Phosphatase Activity (compared to DMSO) PRL-3 (recombinant PRL-3; [2]): 91% |
| C[C@]12CCC(=O)C=C1[C@@H]1C[C@@H]1[C@H]1[C@@H]3[C@@H]4C[C@@H]4[C@@]4(CCC(=O)O4)[C@@]3(C)CC[C@@H]12 [Drospirenone] | 90% | 89% | 71% |  |
| O=NN(CCCl)C(=O)NC1CCCCC1 [Lomustine] | 96% | 105% | 94% |  |
| CN(C)c1cc(NC(=O)CNC(C)(C)C)c(O)c2c1C[C@H]1C[C@H]3[C@H](N(C)C)C(O)=C(C(N)=O)C(=O)[C@@]3(O)C(O)=C1C2=O [Tigecycline] |  |  |  | % Phosphatase Activity (compared to DMSO) PRL-1 (recombinant PRL-1; [2]): 36%; % Phosphatase Activity (compared to DMSO) PRL-2 (recombinant PRL-2; [2]): 45%; % Phosphatase Activity (compared to DMSO) PRL-3 (recombinant PRL-3; [2]): 24% |
| CN(C)Cc1c(C(=O)NCCOc2ccc(C(=O)NO)cc2)oc2ccccc12 [PCI-24781 (Abexinostat)] | 100% | 96% | 86% |  |
| CC(=O)O[C@]1(C(C)=O)CC[C@H]2[C@@H]3C=C(C)C4=CC(=O)CC[C@]4(C)[C@H]3CC[C@@]21C [Megestrol Acetate] | 86% | 92% | 67% |  |
| CCC(=O)OCC(=O)[C@@]1(OC(=O)CC)[C@@H](C)C[C@H]2[C@@H]3CCC4=CC(=O)C=C[C@]4(C)[C@@]3(F)[C@@H](O)C[C@@]21C [Betamethasone Dipropionate] | 92% | 83% | 84% |  |
| CCC(=O)NCC[C@@H]1CCc2ccc3c(c21)CCO3 [Ramelteon] | 91% | 96% | 73% |  |
